Measured values taken from a compilation of properties of binary mixtures (doi:10.1016/j.molliq.2018.02.064).

Test: xn = mol fraction of the nth substance listed
Details: 100 kPa

CCCC[n+]1ccn(C)c1.O=S(=O)([N-]S(=O)(=O)C(F)(F)F)C(F)(F)F + CCO
viscosity [mPa·s]
Details	x1 = 0.2129	x1 = 0.2688	x1 = 0.4215	x1 = 0.4606	x1 = 0.5784	x1 = 0.6609	x1 = 0.747	x1 = 0.8264	x1 = 1
293 K	5.22	6.47	12.72	13.9	–	24.9	32.4	40.9	63.5
293.3 K	5.19	6.42	12.59	–	20.5	24.6	–	40.4	62.7
293.61 K	5.15	–	12.47	13.7	20.4	24.4	31.8	39.9	–
293.91 K	–	6.33	12.34	–	20.2	–	31.4	39.4	61
294.21 K	5.08	6.28	–	13.42	20	–	31.1	38.9	–
294.52 K	5.05	6.24	12.1	13.3	19.8	23.7	–	–	–
294.82 K	5.01	6.19	–	13.18	19.6	23.5	30.5	38	–
295.12 K	4.98	6.15	–	13.06	19.4	23.3	–	37.6	57.8
295.42 K	–	–	11.75	–	19.2	23.1	29.9	37.1	57
295.73 K	4.91	6.06	11.64	12.82	19	22.8	29.5	–	56.3
296.03 K	4.87	6.02	11.52	12.7	18.9	22.6	29.2	36.2	55.6
296.33 K	4.84	5.98	11.41	12.59	18.7	22.4	28.9	35.8	54.8
296.64 K	4.81	–	11.31	–	18.5	22.2	28.6	35.4	–
296.94 K	4.77	5.89	11.2	–	18.34	22	–	35	53.4
297.24 K	4.74	–	–	12.25	–	21.8	–	34.5	52.7
297.55 K	4.71	5.81	10.99	12.14	18	21.6	27.8	–	52.1
297.85 K	4.68	5.77	10.88	12.04	17.83	21.4	27.5	33.7	–
298.15 K	–	–	10.78	11.93	17.67	21.2	27.2	33.3	50.8
298.45 K	4.61	5.69	10.68	11.82	17.5	–	–	33	50.1
298.76 K	4.58	5.65	–	11.72	17.34	20.8	26.7	–	49.5
299.06 K	–	5.61	10.49	11.62	–	–	26.4	32.2	48.9
299.36 K	4.52	5.57	10.39	11.52	17.03	20.4	26.2	31.8	48.3
299.67 K	4.48	5.53	10.29	–	16.87	20.2	25.9	31.5	47.7
299.97 K	–	5.49	10.2	11.31	–	20	25.6	31.1	47.1
300.27 K	–	5.45	–	11.22	16.56	19.9	–	–	46.5
300.58 K	4.39	5.41	–	11.12	16.41	19.7	25.1	30.4	45.9
300.88 K	4.36	–	–	11.02	16.26	19.5	24.9	30.1	45.4
301.18 K	4.33	–	9.84	10.93	16.11	19.3	24.6	29.7	44.8
301.48 K	–	5.3	9.75	10.83	15.97	19.1	24.4	29.4	44.3
301.79 K	4.27	5.26	9.66	10.74	15.82	19	24.2	29	43.7
302.09 K	4.24	5.22	9.57	10.65	15.68	18.8	23.9	28.7	43.2
302.39 K	4.21	5.19	9.49	–	15.54	18.6	23.7	28.4	42.7
302.7 K	–	–	9.41	10.47	15.4	18.5	–	–	42.2
303 K	4.15	5.11	9.32	–	15.26	18.3	–	27.8	41.7
303.3 K	4.13	–	9.24	10.29	15.12	18.1	23	27.4	41.2
303.61 K	4.1	5.04	9.16	10.2	14.99	18	22.8	27.1	40.7
303.91 K	4.07	5	9.08	10.12	14.85	17.8	22.6	–	40.2
304.21 K	4.04	4.97	9	10.03	14.72	17.6	22.3	26.5	39.8
304.52 K	4.01	4.93	8.92	–	–	17.5	22.1	26.2	–
304.82 K	3.98	–	–	9.87	14.46	17.3	–	26	38.9
305.12 K	3.96	4.86	8.77	9.78	14.33	17.1	21.7	25.7	–
305.42 K	3.93	4.83	8.7	9.7	14.2	16.99	21.5	25.4	38
305.73 K	3.9	4.8	8.62	9.62	14.07	16.84	21.3	25.1	37.5
306.03 K	3.88	–	8.55	9.54	13.95	16.69	21.1	24.8	37.1
306.33 K	3.85	4.73	8.48	9.46	–	16.54	20.9	–	36.7
306.64 K	3.82	–	8.41	9.39	13.7	–	20.7	24.3	36.2
306.94 K	–	4.66	8.34	9.31	13.58	16.24	20.5	24	35.8
307.24 K	3.77	4.63	–	–	13.46	16.09	20.3	23.8	35.4
307.55 K	3.74	4.6	8.2	9.16	13.34	15.95	20.1	23.5	35
307.85 K	3.72	4.56	8.13	9.08	13.23	15.81	19.9	23.3	34.7
308.15 K	3.69	–	8.06	9.01	13.11	–	19.7	23	34.3
308.45 K	–	4.5	7.99	8.94	13	–	–	22.8	33.9
308.76 K	3.64	4.47	–	8.86	–	15.39	–	22.5	33.5
309.06 K	3.61	–	7.86	8.79	12.77	15.25	19.2	22.3	33.1
309.36 K	3.59	4.4	7.8	8.72	12.66	15.11	19	22.1	32.8
309.67 K	3.56	4.37	–	8.65	12.55	14.98	18.8	21.8	–
309.97 K	3.54	4.34	7.67	–	12.44	14.85	–	21.6	32.1
310.27 K	3.52	4.31	7.61	8.51	12.33	14.71	18.4	21.4	31.7
310.58 K	3.49	4.28	7.55	8.44	12.22	14.58	–	21.1	31.4
310.88 K	–	4.25	7.49	8.38	–	14.45	18.09	–	31
311.18 K	3.44	4.22	7.43	–	12.01	14.33	17.92	20.7	30.7
311.48 K	–	4.19	7.37	8.24	11.91	14.2	17.75	20.5	30.4
311.79 K	3.39	4.16	7.31	–	–	14.07	–	–	30.1
312.09 K	3.37	–	7.25	8.11	11.7	–	17.42	20.1	29.7
312.39 K	3.35	–	7.19	–	11.6	13.83	17.26	19.8	29.4
312.7 K	3.32	–	7.13	7.98	11.5	13.7	17.1	19.6	29.1
313 K	3.3	4.04	7.08	7.92	11.4	13.58	–	19.4	–
313.3 K	3.28	4.02	–	7.86	11.3	13.46	16.78	19.2	28.5
313.61 K	3.26	3.99	6.96	7.8	11.21	13.34	16.62	–	28.2
313.91 K	3.23	3.96	6.91	7.74	11.11	–	–	18.8	27.9
314.21 K	–	–	6.86	7.68	11.02	13.11	–	18.6	27.6
314.52 K	3.19	3.9	6.8	7.62	–	13	–	18.5	27.3
314.82 K	3.17	3.88	6.75	7.56	10.83	–	16.02	18.3	27.1
315.12 K	3.14	3.85	6.7	7.5	10.74	12.77	15.87	–	26.8
315.42 K	3.12	–	6.64	7.44	10.64	–	15.72	17.9	26.5
315.73 K	3.1	3.79	–	7.38	–	–	15.58	17.7	26.2
316.03 K	3.08	–	6.54	7.33	10.46	12.44	15.43	17.5	26
316.33 K	3.06	3.74	6.49	–	10.38	12.33	15.29	17.4	25.7
316.64 K	3.03	3.71	–	7.21	–	12.22	15.15	17.2	–
316.94 K	3.01	3.69	6.39	7.16	10.2	–	15.01	–	25.2
317.24 K	2.99	3.66	6.34	7.1	10.11	–	14.88	16.9	24.9
317.55 K	2.97	–	–	7.05	–	11.91	14.74	16.7	24.7
317.85 K	2.95	3.61	–	6.99	9.94	–	14.6	16.5	–
318.15 K	2.93	–	6.2	–	9.86	11.7	14.47	16.3	24.2
318.45 K	2.91	3.56	6.15	6.89	9.78	11.6	14.34	–	23.9
318.76 K	2.89	3.53	6.1	–	–	11.5	14.21	16.02	–
319.06 K	–	3.51	6.06	6.78	9.61	11.4	14.08	15.86	23.5
319.36 K	2.85	3.48	6.01	6.73	9.53	11.3	13.95	15.71	23.2
319.67 K	2.83	3.46	–	6.68	9.45	11.2	–	15.55	23
319.97 K	2.81	3.43	5.92	–	–	11.1	13.7	15.4	22.8
320.27 K	2.79	3.41	5.88	6.58	–	11.01	–	–	22.6
320.58 K	2.77	3.38	–	6.53	9.22	10.91	13.45	15.09	22.3
320.88 K	2.75	3.36	5.79	6.48	9.14	10.82	13.33	14.95	22.1
321.18 K	2.73	3.34	5.74	–	9.06	–	13.21	14.8	21.9
321.48 K	2.71	3.31	5.7	6.38	8.99	10.63	–	14.66	21.7
321.79 K	2.69	–	5.66	–	8.91	10.54	12.97	14.51	21.5
322.09 K	–	3.27	–	6.29	8.84	10.45	12.86	14.37	–
322.39 K	2.65	3.24	5.58	6.24	8.76	10.36	–	14.23	21.1
322.7 K	2.63	3.22	5.53	6.19	8.69	10.27	–	14.09	20.9
323 K	2.62	3.2	5.49	–	8.62	10.18	12.51	13.96	20.7
